Source: ChEMBL document CHEMBL5723584 (2023)

Assays:
[1] = target: T1, Citron Rho-interacting kinase (Homo sapiens, UniProt O14578); experiment: NanoLuc NanoBRET (CIT)
[2] = target: T1, Citron Rho-interacting kinase; experiment: NanoLuc NanoBRET (CITKD)

T1 sequence (O14578 whole entry): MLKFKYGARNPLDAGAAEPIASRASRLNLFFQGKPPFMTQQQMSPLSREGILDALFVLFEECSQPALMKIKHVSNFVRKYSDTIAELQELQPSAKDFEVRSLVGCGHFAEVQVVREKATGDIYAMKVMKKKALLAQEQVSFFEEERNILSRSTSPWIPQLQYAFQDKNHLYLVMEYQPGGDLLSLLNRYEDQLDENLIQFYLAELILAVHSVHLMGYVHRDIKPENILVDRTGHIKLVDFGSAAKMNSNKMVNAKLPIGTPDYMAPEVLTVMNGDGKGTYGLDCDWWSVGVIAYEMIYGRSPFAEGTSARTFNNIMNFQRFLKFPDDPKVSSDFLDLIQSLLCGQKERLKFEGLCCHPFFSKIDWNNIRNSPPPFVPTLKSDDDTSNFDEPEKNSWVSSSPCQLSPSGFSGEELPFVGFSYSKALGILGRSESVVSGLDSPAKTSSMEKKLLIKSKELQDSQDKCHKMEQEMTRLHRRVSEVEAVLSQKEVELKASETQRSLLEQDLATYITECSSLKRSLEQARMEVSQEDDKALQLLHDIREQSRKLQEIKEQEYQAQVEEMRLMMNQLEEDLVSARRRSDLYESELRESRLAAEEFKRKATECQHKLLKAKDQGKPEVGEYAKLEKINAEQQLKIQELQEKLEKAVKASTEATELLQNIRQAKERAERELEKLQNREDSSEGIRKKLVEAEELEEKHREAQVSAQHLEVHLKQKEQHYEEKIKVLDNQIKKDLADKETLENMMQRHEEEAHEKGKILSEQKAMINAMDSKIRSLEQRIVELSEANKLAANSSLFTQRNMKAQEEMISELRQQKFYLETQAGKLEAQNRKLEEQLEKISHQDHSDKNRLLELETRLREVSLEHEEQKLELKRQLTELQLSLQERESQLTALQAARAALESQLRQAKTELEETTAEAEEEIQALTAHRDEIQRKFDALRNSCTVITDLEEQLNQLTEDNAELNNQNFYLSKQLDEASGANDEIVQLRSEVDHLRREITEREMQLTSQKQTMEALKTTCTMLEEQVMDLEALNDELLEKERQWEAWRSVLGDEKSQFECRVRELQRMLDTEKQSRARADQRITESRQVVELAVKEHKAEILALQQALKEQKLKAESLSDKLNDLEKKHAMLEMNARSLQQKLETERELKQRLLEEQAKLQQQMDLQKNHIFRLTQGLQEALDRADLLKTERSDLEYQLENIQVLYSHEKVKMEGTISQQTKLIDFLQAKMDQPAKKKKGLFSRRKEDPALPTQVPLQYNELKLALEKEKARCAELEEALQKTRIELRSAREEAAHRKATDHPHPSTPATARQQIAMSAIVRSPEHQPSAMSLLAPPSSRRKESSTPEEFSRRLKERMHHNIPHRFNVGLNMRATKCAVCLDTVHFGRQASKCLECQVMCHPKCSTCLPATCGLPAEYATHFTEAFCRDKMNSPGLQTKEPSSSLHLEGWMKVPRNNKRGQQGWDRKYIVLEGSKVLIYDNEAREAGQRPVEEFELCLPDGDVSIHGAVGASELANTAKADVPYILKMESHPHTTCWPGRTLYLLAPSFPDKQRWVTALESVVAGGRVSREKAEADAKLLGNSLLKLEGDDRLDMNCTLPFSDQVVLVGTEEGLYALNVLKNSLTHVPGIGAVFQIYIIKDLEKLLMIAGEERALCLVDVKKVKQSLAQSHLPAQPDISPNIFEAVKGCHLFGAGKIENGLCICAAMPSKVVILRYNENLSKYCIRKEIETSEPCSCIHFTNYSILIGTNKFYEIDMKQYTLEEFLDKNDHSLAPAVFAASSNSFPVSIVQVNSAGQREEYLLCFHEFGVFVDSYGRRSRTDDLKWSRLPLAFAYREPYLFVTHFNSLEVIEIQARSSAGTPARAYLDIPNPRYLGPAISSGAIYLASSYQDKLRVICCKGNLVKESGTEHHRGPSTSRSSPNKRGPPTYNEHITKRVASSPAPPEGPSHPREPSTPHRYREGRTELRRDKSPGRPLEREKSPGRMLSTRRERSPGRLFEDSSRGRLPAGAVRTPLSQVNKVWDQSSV

How did the Kd [1] turn out when `Cc1cc2c(-c3ccc(NC(=O)[C@H](N)CC(C)(C)C)cc3C)cncc2[nH]1` was run?
Its Kd is “no binding”.

And the Kd [2]?
The Kd was “no binding”.
